Like-named read-outs stand apart in the source and are kept apart here.
What was measured:
Format in all cases: cell-based
[1] = biological target: T1, human CXCR4 (Homo sapiens, UniProt P61073); assay: Functional FLIPR assay (block of SDF-1 alpha induced [Ca2+]i change); conditions: HEK-293 cells with human CXCR4 BacMam and Gqi5 BacMam; antagonism of SDF-1 alpha; read-out: Functional assay (pIC50) (converted)
T1 construct: expressed in transfected cells; host or cells: HEK-293 cells (stably expressing human macrophage scavenging receptor) transduced with human CXCR4 BacMam and Gqi5 BacMam baculoviruses
T1 sequence (P61073 whole entry): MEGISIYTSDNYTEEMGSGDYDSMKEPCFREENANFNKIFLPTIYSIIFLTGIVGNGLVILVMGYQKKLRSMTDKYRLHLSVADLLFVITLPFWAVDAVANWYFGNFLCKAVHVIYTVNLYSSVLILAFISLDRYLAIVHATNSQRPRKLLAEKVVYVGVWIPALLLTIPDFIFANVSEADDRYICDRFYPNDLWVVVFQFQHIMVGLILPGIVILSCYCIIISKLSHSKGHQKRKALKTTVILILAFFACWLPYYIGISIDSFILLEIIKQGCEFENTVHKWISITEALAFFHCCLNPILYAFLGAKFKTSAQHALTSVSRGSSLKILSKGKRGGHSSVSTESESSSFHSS
Method: Human embryonic kidney (HEK-293) cells were maintained and harvested as described above. Cells were plated in 96-well, black clear bottom, poly-lysine coated plates at a concentration of 40,000 cells per well in a final volume of 100 ul containing human CXCR4BacMam (MOI=25) and Gqi5 BacMam (MOI=12.5). The cells were incubated at 37° C., 5% CO2, 95% humidity for 24 h to allow for protein expression.
After the required incubation time the cells were washed once with 50 ul of fresh serum-free DMEM/F12 media containing probenicid. 50 ul of dye solution was then added to the cells (Calcium Plus Assay Kit Dye; Molecular Devices) was dissolved in 200 ml of the above probenicid/BSA containing media and incubated for 1 h. Cell plates were transferred to a Fluorometric Imaging Plate Reader (FLIPR). Upon addition the effect of the compounds on the change in [Ca^2+]i was examined to determine if the compounds were agonists or antagonists (ability to block SDF-1 alpha activity) at the CXCR4 receptor. IC50 values are determined and pKb values are calculated using the Leff and Dougall equation: KB=IC50/((2+([agonist]/EC50ˆb)ˆ1/b−1) Where IC50 is that defined by the antagonist concentration-response curve [agonist] is the EC80 concentration of agonist used EC50 is that defined by the agonist concentration-response curve b is the slope of the agonist concentration-response curve.

[2] = tested on: HIV-1 IIIB (T-tropic, CXCR4 utilizing); assay: HOS HIV-1 infectivity assay
Outline: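 Engineered HOS reporter cells in 2% FCS medium received compound 1 h ahead of HIV-1 (~2 million RLU/well). Cultures ran 96 h at 37 °C before luciferase quantitation; parallel uninfected wells were scored for viability by CellTiter-Glo.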

[3] = tested on: HIV-1 gp160 (from the HXB2 HIV strain); assay: Cell/cell fusion assay (HEK-293 expressing HIV-1 tat, rev, gp160 with HOS hCXCR4/hCCR5/hCD4/pHIV-LTR-luciferase cells); conditions: Human immunodeficiency virus 1, HXB2, HEK293, 24 h, read-out: Fusion assay (pIC50), luciferase readout after 24 h (converted)
Source text: The complete coding sequences of HIV-1 tat (GenBank Accession No. X07861) and rev (GenBank Accession No. M34378) were cloned into pcDNA3.1 expression vectors containing G418 and hygromycin resistance genes, respectively. The complete coding sequence of the HIV-1 (HXB2 strain) gp160 envelope gene (nucleotide bases 6225-8795 of GenBank Accession No. K03455) was cloned into plasmid pCRII-TOPO. The three HIV genes were additionally inserted into the baculovirus shuttle vector, pFastBacMam1, under the transcriptional control of the CMV promoter. A construction of the pHIV-I LTR containing mutated NFkB sequences linked to the luciferase reporter gene was prepared by digesting pcDNA3.1, containing the G418 resistance gene, with Nru I and Bam HI to remove the CMV promoter. LTR-luc was then cloned into the Nru I/Bam HI sites of the plasmid vector. Plasmid preparations were performed after the plasmids were amplified in Escherichia coli strain DH5-alpha. The fidelity of the inserted sequences was confirmed by double-strand nucleotide sequencing using an ABI Prism Model 377 automated sequencer.
Recombinant BacMam baculoviruses were constructed from pFastBacMam shuttle plasmids by using the bacterial cell-based Bac-to-Bac system. Viruses were propagated in Sf9 (Spodoptera frugiperda) cells cultured in Hink's TNM-FH Insect media supplemented with 10% (v/v) fetal bovine serum and 0.1% (v/v) pluronic F-68 according to established protocols.
Human osteosarcoma (HOS) cells that naturally express human CXCR4 were transfected with human CCR5, human CD4 and the pHIV-LTR-luciferase plasmid using FuGENE 6 transfection reagent. Single cells were isolated and grown under selection condition in order to generate a stable HOS (hCXCR4/hCCR5/hCD4/pHIV-LTR-luciferase) clonal cell line. The cells were maintained in Dulbeccos modified Eagles media supplemented with 10% fetal calf serum (FCS), G418 (400 ug/ml), puromycin (1 ug/ml), mycophenolic acid (40 ug/ml), xanthine (250 ug/ml) and hypoxanthine (13.5 ug/ml) to maintain a selection pressure for cells expressing the LTR-luciferase, hCCR5 and hCD4, respectively. Human embryonic kidney (HEK-293) cells stably transfected to express the human macrophage scavenging receptor (Class A, type 1; GenBank Accession No. D90187), were maintained in DMEM/F-12 media (1:1) supplemented with 10% FCS and 1.5 ug/ml puromycin. The expression of this receptor by the HEK-293 cells enhances their ability to stick to tissue culture treated plasticware.
HEK-293 cells were harvested using enzyme-free cell dissociation buffer. The cells were resuspended in DMEM/F-12 media supplemented with 10% FCS and 1.5 ug/ml and counted. Tranductions were performed by direct addition of BacMam baculovirus containing insect cell media to cells. The cells were simultaneously transduced with BacMam baculovirus expressing HIV-1 tat, HIV-1 rev and HIV-1 gp160 (from the HXB2 HIV strain). Routinely an MOI of 10 of each virus was added to the media containing the cells. 2 mM butyric acid was also added to the cells at this stage to increase protein expression in transduced cells. The cells were subsequently mixed and seeded into a flask at 30 million cells per T225. The cells were incubated at 37° C., 5% CO2, 95% humidity for 24 h to allow for protein expression.
HEK and HOS cells were harvested in DMEM/F-12 media containing 2% FCS and DMEM media containing 2% FCS, respectively, with no selection agents added. Compounds were plated as 1 ul spots in 100% DMSO on a 96-well CulturPlate plates. HOS cells (50 ul) were added first to the wells, followed immediately by the HEK cells (50 ul). The final concentration of each cell type was 20,000 cells per well. Following these additions, the cells were returned to a tissue culture incubator (37° C.; 5% CO2/95% air) for an additional 24 h.
Following the 24 h incubation, total cellular luciferase activity was measured using the LucLite Plus assay kit (Packard, Meridien, Conn.). […]

[4] = Compound cytotoxicity in the absence of virus addition (CellTiter-Glo); conditions: human; non-infected HOS cultures; read-out: Cytotox (pIC50) (converted)
Method: Compounds were profiled against two HIV-1 viruses, the M-tropic (CCR5 utilizing) Ba-L strain and the T-tropic (CXCR4 utilizing) IIIB strain. Both viruses were propagated in human peripheral blood lymphocytes. Compounds were tested for there ability to block infection of the HOS cell line (expressing hCXCR4/hCCR5/hCD4/pHIV-LTR-luciferase) by either HIV-1 Ba-L or HIV-1 IIIB. Compound cytotoxicity was also examined in the absence of virus addition.
HOS cells (expressing hCXCR4/hCCR5/hCD4/pHIV-LTR-luciferase) were harvested and diluted in Dulbeccos modified Eagles media supplemented with 2% FCS and non-essential amino acid to a concentration of 60,000 cells/ml. The cells were plated into 96-well plates (100 ul per well) and the plates were placed in a tissue culture incubator (37° C.; 5% CO2/95% air) for a period of 24 h.
Subsequently, 50 ul of the desired drug solution (4 times the final concentration) was added to each well and the plates were returned to the tissue culture incubator (37° C.; 5% CO2/95% air) for 1 h. Following this incubation 50 ul of diluted virus was added to each well (approximately 2 million RLU per well of virus). The plates were returned to the tissue culture incubator (37° C.; 5% CO2/95% air) and were incubated for a further 96 h.
Following this incubation the endpoint for the virally infected cultures was quantified following addition of Steady-Glo Luciferase assay system reagent (Promega, Madison, Wis.). Cell viability or non-infected cultures was measured using a CellTiter-Glo luminescent cell viability assay system (Promega, Madison, Wis.). All luminescent readouts are performed on a Topcount luminescence detector (Packard, Meridien, Conn.).

[5] = Human immunodeficiency virus 1, IIIB, as determined by the infectivity assay, strain not stated in Table 2, read-out: Activity Level
[6] = Human immunodeficiency virus 1, HIV-1 IIIB, HOS cells, 96 h, luciferase readout, read-out: HOS (3B)

| SMILES | IC50 [1] [nM] | IC50 [2, 5] [nM] | IC50 [2, 6] [nM] | IC50 [3] [nM] | IC50 at 96 h [4] [nM] |
| --- | --- | --- | --- | --- | --- |
| CN(Cc1nc2c(C(=O)NCCc3c[nH]cn3)cccc2n1C)C1CCCc2cccnc21 (stereo not shown) [Example 9, N-[2-(1H-Imidazol-4-yl)ethyl]-1-methyl-2-{[methyl(5,6,7,8-tetrahydro-8-quinolinyl)amino]methyl}-1H-benzimidazole-4-carboxamide] | 91.2 | < 100 | 56 | 75.9 | > 100000 |
| CN(Cc1nc2c(C(=O)N3CCNCC3)cccc2n1C)C1CCCc2cccnc21 (stereo not shown) [Example 10, N-Methyl-N-{[1-methyl-4-(1-piperazinylcarbonyl)-1H-benzimidazol-2-yl]methyl}-5,6,7,8-tetrahydro-8-quinolinamine] | 1410 | 500 to 10000 | 840 | 1910 | > 100000 |
| CN(Cc1nc2cccc(C(=O)NCCCCN)c2[nH]1)C1CCCc2cccnc21 (stereo not shown) [Example 11, N-(4-Aminobutyl)-2-{[methyl(5,6,7,8-tetrahydro-8-quinolinyl)amino]methyl}-1H-benzimidazole-4-carboxamide] | 257 | 100 to 500 | 395 | 741 | > 100000 |
| CCN(Cc1nc2cc(C(=O)NCCc3cnc[nH]3)ccc2[nH]1)C1CCCc2cccnc21 (stereo not shown) [Example 12, 2-{[Ethyl(5,6,7,8-tetrahydro-8-quinolinyl)amino]methyl}-N-[2-(1H-imidazol-4-yl)ethyl]-1H-benzimidazole-5-carboxamide] | 447 | 100 to 500 | 179 | 1170 | > 100000 |
| CCN(Cc1nc2cc(C(=O)NCCCN)ccc2[nH]1)C1CCCc2cccnc21 (stereo not shown) [Example 13, N-(3-Aminopropyl)-2-{[ethyl(5,6,7,8-tetrahydro-8-quinolinyl)amino]methyl}-1H-benzimidazole-5-carboxamide] | 417 | 500 to 10000 | 594 | 1740 | > 100000 |
| CCN(Cc1nc2cc(C(=O)NCCN)ccc2[nH]1)C1CCCc2cccnc21 (stereo not shown) [Example 14, N-(2-Aminoethyl)-2-{[ethyl(5,6,7,8-tetrahydro-8-quinolinyl)amino]methyl}-1H-benzimidazole-5-carboxamide] | 339 | 100 to 500 | 440 | 2570 | > 100000 |
| CCN(Cc1nc2cccc(C(=O)NCCCN)c2[nH]1)C1CCCc2cccnc21 (stereo not shown) [Example 15, N-(3-Aminopropyl)-2-{[ethyl(5,6,7,8-tetrahydro-8-quinolinyl)amino]methyl}-1H-benzimidazole-4-carboxamide] | 120 | 100 to 500 | 141 | 355 | > 100000 |
| CCN(Cc1nc2cccc(C(=O)NCCCCN)c2[nH]1)C1CCCc2cccnc21 (stereo not shown) [Example 16, N-(4-Aminobutyl)-2-{[ethyl(5,6,7,8-tetrahydro-8-quinolinyl)amino]methyl}-1H-benzimidazole-4-carboxamide] | 288 | 100 to 500 | 238 | 724 | > 100000 |
| CN(Cc1nc2cc(CN)ccc2[nH]1)C1CCCc2cccnc21 (stereo not shown) [Example 17, N-{[5-(Aminomethyl)-1H-benzimidazol-2-yl]methyl}-N-methyl-5,6,7,8-tetrahydro-8-quinolinamine] | 257 | 500 to 10000 | 1360 | 1290 | > 100000 |
| CN(Cc1nc2cc(CNCCCN)ccc2[nH]1)C1CCCc2cccnc21 (stereo not shown) [Example 18, N-[(2-{[Methyl(5,6,7,8-tetrahydro-8-quinolinyl)amino]methyl}-1H-benzimidazol-5-yl)methyl]-1,3-propanediamine] | 151 | 100 to 500 | 160 | 468 | > 100000 |
| CN(Cc1nc2cc(CNCC3CCNCC3)ccc2[nH]1)C1CCCc2cccnc21 (stereo not shown) [Example 19, N-Methyl-N-[(5-{[(4-piperidinylmethyl)amino]methyl}-1H-benzimidazol-2-yl)methyl]-5,6,7,8-tetrahydro-8-quinolinamine] | 251 | 100 to 500 | 167 | 501 | > 100000 |
